Data taken from patent US20090005375A1, “ACETYL COENZYME A CARBOXYLASE INHIBITORS” (priority 2007, published 2009).

What was measured:
Human ACC2 = target: T1, Human ACC2 (Homo sapiens, UniProt O00763); experiment: In vitro enzymatic ACC activity assay (malachite green), ACC2; type: biochemical; settings: recombinant His-tagged enzyme, absorbance at 620 nm
T1 construct: made in house; host or cells: SF-9 insect cells (baculovirus, pFAST-BacHTa)
Description: (§1) Provided in Example A is an in vitro enzymatic ACC activity assay for activity against ACC. The binding affinity of the test compound to ACC1 or ACC2 is determined by the changes in absorbance (at 620 nm); […]. It should be noted that a variety of other expression systems and hosts are also suitable for the expression of ACC, as would be readily appreciated by one of skill in the art.
Human ACC2 cDNA except coding region for mitochondria localization sequence was amplified from human skeletal muscle cDNA by polymerase chain reaction using primers; 5′[…]3′ (SEQ ID NO: 3) and 5′[…]3′ (SEQ ID NO: 4). The amplified DNA fragment was digested by SalI and AflII, and cloned into pFAST-BacHTa (Invitrogen). Preparation of recombinant vaculovirus, infection of the virus to SF-9 cells and purification of recombinant ACC2 protein with 6×His-tag at the N-terminal were performed in the same method as described above.
(§2) Malachite green solution was prepared by mixing 100 mL of solution A (0.12% malachite green in 5NH2SO4), 25 mL of solution B (7.5% ammonium molybdate) and 2 mL of solution C (11% TWEEN-20).
(§3) ACC1 was diluted to 8 μg/mL in reaction buffer (50 mM HEPES pH7.5, 10 mM MgCl2, 10 mM tripotassium citrate, 2 mM DTT, 0.75 mg/mL fatty acid free BSA) and 10 μL diluted enzyme solution was pored into each well of 384-well clear bottom plate. Test compound was diluted in the reaction buffer and 5 μL of the compound solution was added into each well, and the mixture was incubated at 30° C. for 60 minutes. Reaction was initiated by addition of 5 μL substrate solution (50 mM KHCO3, 200 μM ATP, 200 μM acetyl-CoA). After incubation at 30° C. for 20 minutes, reaction was terminated by addition of 5 μL malachite green solution and absorbance at 620 nm was measured.
ACC2 was diluted to 6.4 μg/mL in reaction buffer, and the activity was measured by the same method as described for ACC1.
(§4) Percent activity at each concentration of compound was calculated from the following equation: […]
(§5) Data were subjected to nonlinear regression analysis using GraphPad Prism Software (GraphPad Software Inc.) to obtain IC50 values.

Human ACC1 = target: T2, Human ACC1 (Homo sapiens, UniProt Q13085); experiment: In vitro enzymatic ACC activity assay (malachite green), ACC1; type: biochemical; settings: recombinant His-tagged enzyme, absorbance at 620 nm
T2 construct: made in house; host or cells: SF-9 insect cells (baculovirus, pFAST-BacHTc)
Description: as §1
Human ACC1 cDNA was amplified from human liver cDNA by polymerase chain reaction using primers; 5′[…]3′ (SEQ ID NO: 1) and 5′[…]3′ (SEQ ID NO: 2). The amplified DNA fragment was digested by restriction enzyme SalI and NotI, and cloned into pFAST-BacHTc (Invitrogen). This plasmid DNA was used for preparation of recombinant vaculovirus with BAC-TO-BAC Baculovirus Expression System (Invitrogen).
SF-9 cells were infected with the vaculovirus and cultured at 27° C. for 3 days. Harvested cells were homogenized in buffer A (25 mM HEPES (pH7.5), 130 mM NaCl, 1 mM EDTA, 25 mM sodium glycerophosphate, 1 mM sodium orthovanadate, 10% glycerol, complete protease inhibitor), and subjected to ultracentrifuge at 185700×g for 50 min at 4° C. ACC1 protein with 6×His-tag at the N-terminal was purified from the supernatant using Ni-NTA Super Flow Gel (QIAGEN). Eluted protein was dialysed against buffer B (50 mM HEPES (pH 7.5), 300 mM NaCl, 10 mM MgCl2, 10 mM tripotassium citrate, 2 mM dithiothreitol) and concentrated using Vivaspin20 ultrafiltration tube (Sartorius).
as §2, §3, §4, §5

T1 sequence (O00763 117-2458 limits assumed): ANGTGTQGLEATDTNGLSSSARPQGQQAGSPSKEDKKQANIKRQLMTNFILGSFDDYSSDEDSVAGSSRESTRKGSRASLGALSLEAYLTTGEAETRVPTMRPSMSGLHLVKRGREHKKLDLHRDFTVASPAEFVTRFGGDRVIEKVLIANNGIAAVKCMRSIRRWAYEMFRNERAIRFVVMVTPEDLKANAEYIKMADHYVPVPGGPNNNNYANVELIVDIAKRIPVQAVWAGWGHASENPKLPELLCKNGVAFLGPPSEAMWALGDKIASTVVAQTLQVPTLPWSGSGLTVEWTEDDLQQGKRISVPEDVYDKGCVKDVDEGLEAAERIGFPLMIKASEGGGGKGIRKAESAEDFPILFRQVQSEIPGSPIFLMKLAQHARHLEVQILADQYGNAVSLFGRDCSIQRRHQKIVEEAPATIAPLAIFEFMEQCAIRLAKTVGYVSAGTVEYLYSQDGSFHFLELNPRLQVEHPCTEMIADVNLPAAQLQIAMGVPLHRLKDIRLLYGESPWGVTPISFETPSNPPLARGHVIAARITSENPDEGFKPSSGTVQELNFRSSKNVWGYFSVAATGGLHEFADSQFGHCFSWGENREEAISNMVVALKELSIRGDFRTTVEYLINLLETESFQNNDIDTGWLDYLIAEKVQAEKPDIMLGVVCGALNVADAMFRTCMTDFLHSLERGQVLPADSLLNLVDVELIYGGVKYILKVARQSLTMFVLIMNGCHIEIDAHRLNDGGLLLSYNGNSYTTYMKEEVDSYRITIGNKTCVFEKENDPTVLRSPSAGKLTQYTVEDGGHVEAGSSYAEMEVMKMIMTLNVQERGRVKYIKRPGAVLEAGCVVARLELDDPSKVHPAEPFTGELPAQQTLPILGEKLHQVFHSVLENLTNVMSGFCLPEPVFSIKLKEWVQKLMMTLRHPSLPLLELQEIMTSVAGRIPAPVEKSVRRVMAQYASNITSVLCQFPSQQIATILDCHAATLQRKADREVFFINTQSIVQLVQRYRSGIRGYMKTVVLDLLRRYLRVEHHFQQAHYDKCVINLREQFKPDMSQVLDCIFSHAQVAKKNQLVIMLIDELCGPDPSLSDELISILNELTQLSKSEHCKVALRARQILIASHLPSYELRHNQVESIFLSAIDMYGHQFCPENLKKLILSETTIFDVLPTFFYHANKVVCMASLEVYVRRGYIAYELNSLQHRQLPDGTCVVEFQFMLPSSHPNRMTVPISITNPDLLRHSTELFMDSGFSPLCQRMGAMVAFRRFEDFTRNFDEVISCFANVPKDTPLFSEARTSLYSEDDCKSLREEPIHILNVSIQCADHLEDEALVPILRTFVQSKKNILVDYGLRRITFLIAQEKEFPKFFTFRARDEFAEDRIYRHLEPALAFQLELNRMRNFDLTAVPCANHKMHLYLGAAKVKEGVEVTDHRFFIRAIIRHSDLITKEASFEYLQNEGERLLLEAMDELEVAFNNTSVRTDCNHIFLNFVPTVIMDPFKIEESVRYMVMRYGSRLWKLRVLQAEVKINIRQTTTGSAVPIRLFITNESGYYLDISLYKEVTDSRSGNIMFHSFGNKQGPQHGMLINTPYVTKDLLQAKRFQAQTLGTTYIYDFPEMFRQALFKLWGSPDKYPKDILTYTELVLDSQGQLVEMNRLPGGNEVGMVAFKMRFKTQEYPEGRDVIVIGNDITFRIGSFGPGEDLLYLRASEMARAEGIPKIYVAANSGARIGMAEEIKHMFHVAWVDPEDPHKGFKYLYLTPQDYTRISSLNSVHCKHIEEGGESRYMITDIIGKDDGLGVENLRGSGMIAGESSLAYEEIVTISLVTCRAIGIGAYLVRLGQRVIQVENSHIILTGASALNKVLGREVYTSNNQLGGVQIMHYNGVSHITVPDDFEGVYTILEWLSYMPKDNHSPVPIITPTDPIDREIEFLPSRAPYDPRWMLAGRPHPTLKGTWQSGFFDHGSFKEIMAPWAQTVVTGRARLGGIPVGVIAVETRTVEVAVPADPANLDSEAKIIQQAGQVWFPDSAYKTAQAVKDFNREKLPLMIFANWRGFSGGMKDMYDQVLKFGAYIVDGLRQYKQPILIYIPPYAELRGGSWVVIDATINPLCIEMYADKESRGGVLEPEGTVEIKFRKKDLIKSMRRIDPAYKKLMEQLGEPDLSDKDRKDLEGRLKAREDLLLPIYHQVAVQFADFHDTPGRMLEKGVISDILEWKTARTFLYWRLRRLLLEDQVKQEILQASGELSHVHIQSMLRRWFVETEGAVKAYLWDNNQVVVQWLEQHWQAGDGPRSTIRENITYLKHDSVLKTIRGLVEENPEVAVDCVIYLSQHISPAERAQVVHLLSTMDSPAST

Compound | IC50 (Human ACC2) [µM] | IC50 (Human ACC1) [µM]
CCNC(=O)Nc1sc2ccccc2c1C(=O)N1CCN(S(=O)(=O)CC(C)C)CC1 [Example 26, ethyl-3-(3-(4-(isobutylsulfonyl)piperazine-1-carbonyl)benzo[b]thiophen-2-yl)urea] | 5 to 50 | 5 to 50
CCNC(=O)Nc1sc2ccccc2c1C(=O)N1CCN(S(=O)(=O)CCC(F)(F)F)CC1 [Example 27, ethyl-3-(3-(4-(3,3,3-trifluoropropylsulfonyl)piperazine-1-carbonyl)benzo[b]thiophen-2-yl)urea] | 5 to 50 | > 50
CCNC(=O)Nc1sc2ccccc2c1C(=O)N1CCN(S(C)(=O)=O)CC1 [Example 28, ethyl-3-(3-(4-(methylsulfonyl)piperazine-1-carbonyl)benzo[b]thiophen-2-yl)urea] | > 50 | > 50
CCNC(=O)Nc1sc2ccccc2c1C(=O)N1CCN(S(=O)(=O)c2ccc(S(C)(=O)=O)cc2)CC1 [Example 29, ethyl-3-(3-(4-(4-(methylsulfonyl)phenylsulfonyl)piperazine-1-carbonyl)benzo[b]thiophen-2-yl)urea] | 5 to 50 | > 50
CCNC(=O)Nc1sc2ccccc2c1C(=O)N1CCN(S(=O)(=O)c2ccc3[nH]c(=O)[nH]c3c2)CC1 [Example 31, ethyl-3-(3-(4-(2-oxo-2,3-dihydro-1H-benzo[d]imidazol-5-ylsulfonyl)piperazine-1-carbonyl)benzo[b]thiophen-2-yl)urea] | < 5 | < 5
CCNC(=O)Nc1sc2ccccc2c1C(=O)N1CCN(S(=O)(=O)CCC(=O)N(CC)CC)CC1 [Example 34, N,N-diethyl-3-(4-(2-(3-ethylureido)benzo[b]thiophene-3-carbonyl)piperazin-1-ylsulfonyl)propanamide] | 5 to 50 | 5 to 50
CCNC(=O)Nc1sc2ccccc2c1C(=O)N1CCN(S(=O)(=O)CCC(=O)N2CCCC2)CC1 [Example 35, ethyl-3-(3-(4-(3-oxo-3-(pyrrolidin-1-yl)propylsulfonyl)piperazine-1-carbonyl)benzo[b]thiophen-2-yl)urea] | 5 to 50 | 5 to 50
CCNC(=O)Nc1sc2ccccc2c1C(=O)N1CCN(S(=O)(=O)CCC(=O)N2CCOCC2)CC1 [Example 36, ethyl-3-(3-(4-(3-morpholino-3-oxopropylsulfonyl)piperazine-1-carbonyl)benzo[b]thiophen-2-yl)urea] | 5 to 50 | 5 to 50
CCNC(=O)Nc1sc2ccccc2c1C(=O)N1CCC(Sc2cccc(OC(F)(F)F)c2)CC1 [Example 40, ethyl-3-(3-(4-(3-(trifluoromethoxy)phenylthio)piperidine-1-carbonyl)benzo[b]thiophen-2-yl)urea] | 5 to 50 | > 50
CCNC(=O)Nc1sc2ccccc2c1C(=O)N1CCC([S+]([O-])c2cccc(OC(F)(F)F)c2)CC1 (centres unmarked) [Example 42, ethyl-3-(3-(4-(3-(trifluoromethoxy)phenylsulfinyl)piperidine-1-carbonyl)benzo[b]thiophen-2-yl)urea] | 5 to 50 | > 50

Results, then the molecule that gave them:

IC50 (Human ACC2) [µM] | IC50 (Human ACC1) [µM] | Compound
< 5 | 5 to 50 | CCNC(=O)Nc1sc2ccccc2c1C(=O)N1CCN(S(=O)(=O)c2ccc3c(c2)NC(=O)C3)CC1 [Example 30, ethyl-3-(3-(4-(2-oxoindolin-6-ylsulfonyl)piperazine-1-carbonyl)benzo[b]thiophen-2-yl)urea]
5 to 50 | > 50 | CCNC(=O)Nc1sc2ccccc2c1C(=O)N1CCN(S(=O)(=O)c2ccc3oc(=O)[nH]c3c2)CC1 [Example 32, ethyl-3-(3-(4-(2-oxo-2,3-dihydrobenzo[d]oxazol-5-ylsulfonyl)piperazine-1-carbonyl)benzo[b]thiophen-2-yl)urea]
< 5 | > 50 | CCNC(=O)Nc1sc2ccccc2c1C(=O)N1CCC(S(=O)(=O)c2cccc(OC)c2)CC1 [Example 37, ethyl-3-(3-(4-(3-methoxyphenylsulfonyl)piperidine-1-carbonyl)benzo[b]thiophen-2-yl)urea]
> 50 | > 50 | CCNC(=O)Nc1sc2ccccc2c1C(=O)N1CCC(S(=O)(=O)c2ccc3c(c2)OCO3)CC1 [Example 38, 1-(3-(4-(benzo[d][1,3]dioxol-5-ylsulfonyl)piperidine-1-carbonyl)benzo[b]thiophen-2-yl)-3-ethylurea]
< 5 | < 5 | CCNC(=O)Nc1sc2ccccc2c1C(=O)N1CCC(Sc2cccc(OC)c2)CC1 [Example 39, ethyl-3-(3-(4-(3-methoxyphenylthio)piperidine-1-carbonyl)benzo[b]thiophen-2-yl)urea]
5 to 50 | 5 to 50 | CCNC(=O)Nc1sc2ccccc2c1C(=O)N1CCC([S+]([O-])c2cccc(OC)c2)CC1 (centres unmarked) [Example 41, ethyl-3-(3-(4-(3-methoxyphenylsulfinyl)piperidine-1-carbonyl)benzo[b]thiophen-2-yl)urea]
